Data from PMC11219871, “Epigenetic-based differentiation therapy for Acute Myeloid Leukemia” (Nature Communications, 2024).

Assays:
Assay in all cases: Epigenetic panel (BPS Bioscience)
Format in all cases: biochemical
[1] = biological target: T1, SETDB1 (Homo sapiens, UniProt Q15047)
T1 construct: purchased BPS Bioscience; Eurofins (HDAC4, 5, 7-11)
Description: (§1) The selectivity of CM-444 and CM-1758 against other epigenetic targets, including histone demethylase (JMJD2A, JMJD2B, JMJD2C, JMJD2D, JMJD2E, JMJD3, JMJD1A, LSD1, Jarid1A, Jarid1B, Jarid1C, FBXL10, FBXL11, JHDM1D, JMJD1B, PHF8, LSD2 and UTX); histone acetyltransferases (GCN5, P300); histone methyltransferases (G9a, GLP, MLL1, SET7/9, SUV39H1, SUV39H2, PRMT1, PRMT3, PRMT4, PRMT5, PRMT6, PRMT8, PRMT9, NSD1, NSD2, EZH1, EZH2, SETDB1, SETD2, SET8, SUV4-20H1, SMYD2, SMYD3, DOT1L, EZH2 (A677G), EZH2 (A677G), EZH2 (A738T), EZH2 (Y641S), EZH2 (P132S), EZH2 (Y641C), EZH2 (Y641F), EZH2 (Y641H), EZH2 (Y641N)); bromodomains (ATAD2B, ATAD2A, BRD1, BRD9, BPTF/FALZ, CeCR2, BRPF3, BRD3 (BD1 + BD2), BAZ2B, WDR9, TAF1 (BD2), TAF1L (BD2), TAF1L (BD1 + BD2), BRD2 (BD1), BRD2 (BD2), BRD2 (BD1 + BD2), BRD3 (BD1), BRD3 (BD2), BRD4 (BD1), BRD4 (BD2), BRD4 (BD1 + BD2), BRDT (BD1), BRDT (BD1 + BD2), CREBBP, SMARCA2A, SMARCA4/BRG1); DNA methyltranferases (DNMT1, DNMT3A/3L and DNMT3B/3L), and sirtuin histone deacetylases (SIRT1, SIRT2, SIRT3, SIRT5 and SIRT6), were determined by BPS Bioscience (http://www.bpsbioscience.com/index.ph). Binding experiments were performed in duplicate at a concentration of 10 μM.

[2] = biological target: T2, EZH2 (Y641F) (Homo sapiens, UniProt Q15910, Y641F)
T2 construct: purchased BPS Bioscience; Eurofins (HDAC4, 5, 7-11)
T2 sequence (Q15910 whole entry Y641F): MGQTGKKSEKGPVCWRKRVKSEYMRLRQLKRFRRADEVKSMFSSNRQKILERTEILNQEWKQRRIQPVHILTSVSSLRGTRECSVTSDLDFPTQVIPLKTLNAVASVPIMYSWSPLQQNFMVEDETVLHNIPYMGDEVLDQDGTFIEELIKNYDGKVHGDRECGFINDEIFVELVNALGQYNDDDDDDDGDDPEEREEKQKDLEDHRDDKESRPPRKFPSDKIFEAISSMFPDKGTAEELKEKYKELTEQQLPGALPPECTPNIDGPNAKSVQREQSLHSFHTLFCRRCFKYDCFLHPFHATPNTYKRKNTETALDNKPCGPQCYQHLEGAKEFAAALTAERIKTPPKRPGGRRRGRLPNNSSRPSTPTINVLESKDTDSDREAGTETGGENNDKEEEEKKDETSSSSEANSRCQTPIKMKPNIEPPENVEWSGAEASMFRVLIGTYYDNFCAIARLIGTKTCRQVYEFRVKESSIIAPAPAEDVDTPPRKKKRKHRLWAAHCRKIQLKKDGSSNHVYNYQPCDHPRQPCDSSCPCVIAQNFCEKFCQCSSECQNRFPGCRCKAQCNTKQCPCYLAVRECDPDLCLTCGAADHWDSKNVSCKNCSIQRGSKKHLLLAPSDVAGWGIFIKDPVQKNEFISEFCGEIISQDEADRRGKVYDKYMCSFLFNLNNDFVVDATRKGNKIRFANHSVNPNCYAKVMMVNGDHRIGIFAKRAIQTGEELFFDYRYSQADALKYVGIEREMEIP
T2 sequence (O75530 whole entry partner): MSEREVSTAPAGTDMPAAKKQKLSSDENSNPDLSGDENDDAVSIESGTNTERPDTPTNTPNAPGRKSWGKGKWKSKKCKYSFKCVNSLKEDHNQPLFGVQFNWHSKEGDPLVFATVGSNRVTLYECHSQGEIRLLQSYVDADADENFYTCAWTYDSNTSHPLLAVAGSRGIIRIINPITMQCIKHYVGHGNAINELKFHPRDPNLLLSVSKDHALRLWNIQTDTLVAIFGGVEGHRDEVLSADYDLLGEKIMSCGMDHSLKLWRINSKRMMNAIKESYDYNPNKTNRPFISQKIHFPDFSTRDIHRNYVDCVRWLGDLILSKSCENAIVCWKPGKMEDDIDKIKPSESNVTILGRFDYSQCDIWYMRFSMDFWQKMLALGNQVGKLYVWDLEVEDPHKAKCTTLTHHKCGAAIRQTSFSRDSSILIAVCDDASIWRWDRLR
T2 sequence (Q15022 whole entry partner): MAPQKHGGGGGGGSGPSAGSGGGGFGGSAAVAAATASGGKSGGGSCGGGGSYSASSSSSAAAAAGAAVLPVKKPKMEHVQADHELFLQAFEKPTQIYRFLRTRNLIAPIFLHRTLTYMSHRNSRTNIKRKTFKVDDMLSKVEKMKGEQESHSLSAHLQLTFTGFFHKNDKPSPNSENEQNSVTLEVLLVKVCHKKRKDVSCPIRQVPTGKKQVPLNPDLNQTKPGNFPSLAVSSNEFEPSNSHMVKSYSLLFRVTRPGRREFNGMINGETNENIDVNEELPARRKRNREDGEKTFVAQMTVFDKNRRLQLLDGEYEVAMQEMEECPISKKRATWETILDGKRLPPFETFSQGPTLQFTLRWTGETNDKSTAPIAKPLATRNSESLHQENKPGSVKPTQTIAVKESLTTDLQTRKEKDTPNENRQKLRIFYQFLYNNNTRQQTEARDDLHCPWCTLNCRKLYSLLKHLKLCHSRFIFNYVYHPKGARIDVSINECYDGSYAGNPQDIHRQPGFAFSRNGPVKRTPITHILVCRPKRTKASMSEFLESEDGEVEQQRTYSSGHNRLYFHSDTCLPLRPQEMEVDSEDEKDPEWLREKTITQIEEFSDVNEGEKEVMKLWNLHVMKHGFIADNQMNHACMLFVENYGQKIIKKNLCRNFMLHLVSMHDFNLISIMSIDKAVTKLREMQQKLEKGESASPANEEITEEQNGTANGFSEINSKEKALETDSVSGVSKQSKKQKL
T2 sequence (Q09028 whole entry partner): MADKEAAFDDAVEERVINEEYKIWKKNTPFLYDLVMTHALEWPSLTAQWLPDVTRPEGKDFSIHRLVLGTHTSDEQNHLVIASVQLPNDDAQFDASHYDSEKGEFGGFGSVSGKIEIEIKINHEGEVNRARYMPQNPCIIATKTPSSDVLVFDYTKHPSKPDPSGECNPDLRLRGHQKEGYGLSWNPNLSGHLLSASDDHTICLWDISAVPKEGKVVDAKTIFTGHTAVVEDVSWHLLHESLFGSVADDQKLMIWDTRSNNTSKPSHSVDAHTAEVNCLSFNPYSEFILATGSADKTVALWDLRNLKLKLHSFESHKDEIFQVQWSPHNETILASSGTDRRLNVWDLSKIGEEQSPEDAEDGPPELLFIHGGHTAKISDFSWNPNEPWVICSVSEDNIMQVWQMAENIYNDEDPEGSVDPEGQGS
T2 sequence (Q6ZN18 whole entry partner): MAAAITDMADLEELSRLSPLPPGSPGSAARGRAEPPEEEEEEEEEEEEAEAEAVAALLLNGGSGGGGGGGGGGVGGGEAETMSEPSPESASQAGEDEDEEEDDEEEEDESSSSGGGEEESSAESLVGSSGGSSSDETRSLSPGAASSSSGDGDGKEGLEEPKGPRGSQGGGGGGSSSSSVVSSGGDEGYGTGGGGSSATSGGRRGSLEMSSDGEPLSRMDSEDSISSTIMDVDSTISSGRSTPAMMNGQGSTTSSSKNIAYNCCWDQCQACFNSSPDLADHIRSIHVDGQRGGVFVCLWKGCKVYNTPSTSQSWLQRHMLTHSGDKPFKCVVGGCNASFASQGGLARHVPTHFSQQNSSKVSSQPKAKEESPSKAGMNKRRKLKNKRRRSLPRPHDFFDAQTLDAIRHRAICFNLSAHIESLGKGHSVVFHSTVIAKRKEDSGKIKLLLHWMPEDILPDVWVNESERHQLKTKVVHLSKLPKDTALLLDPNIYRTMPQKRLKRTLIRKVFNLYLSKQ
Description: as §1

[3] = biological target: T3, Jarid1A (Homo sapiens, UniProt P29375)
T3 construct: purchased BPS Bioscience; Eurofins (HDAC4, 5, 7-11)
Description: as §1

[4] = biological target: T4, PHF8 (Homo sapiens, UniProt Q9UPP1)
T4 construct: purchased BPS Bioscience; Eurofins (HDAC4, 5, 7-11)
Description: as §1

[5] = biological target: T5, Jarid1B (Homo sapiens, UniProt Q9UGL1)
T5 construct: purchased BPS Bioscience; Eurofins (HDAC4, 5, 7-11)
Description: as §1

[6] = biological target: T6, PRMT4 (Homo sapiens, UniProt Q86X55)
T6 construct: purchased BPS Bioscience; Eurofins (HDAC4, 5, 7-11)
Description: as §1

[7] = biological target: T7, SMYD2 (Homo sapiens, UniProt Q9NRG4)
T7 construct: purchased BPS Bioscience; Eurofins (HDAC4, 5, 7-11)
T7 sequence (Q9NRG4 whole entry): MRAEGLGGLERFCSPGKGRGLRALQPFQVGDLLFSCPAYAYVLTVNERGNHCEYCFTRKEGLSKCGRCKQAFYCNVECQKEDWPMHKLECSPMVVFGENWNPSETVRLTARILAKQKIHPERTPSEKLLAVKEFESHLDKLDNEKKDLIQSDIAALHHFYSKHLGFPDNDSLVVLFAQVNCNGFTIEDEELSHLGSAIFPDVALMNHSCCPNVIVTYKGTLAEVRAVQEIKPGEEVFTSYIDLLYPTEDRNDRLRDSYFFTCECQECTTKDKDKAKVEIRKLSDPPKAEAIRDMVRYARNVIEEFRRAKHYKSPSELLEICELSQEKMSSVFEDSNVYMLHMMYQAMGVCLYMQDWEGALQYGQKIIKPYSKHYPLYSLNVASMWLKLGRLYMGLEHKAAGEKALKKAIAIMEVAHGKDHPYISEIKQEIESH
Description: as §1

[8] = biological target: T8, PRMT5 (Homo sapiens, UniProt O14744)
T8 construct: purchased BPS Bioscience; Eurofins (HDAC4, 5, 7-11)
Description: as §1

[9] = biological target: T9, SIRT1 (Homo sapiens, UniProt Q96EB6)
T9 construct: purchased BPS Bioscience; Eurofins (HDAC4, 5, 7-11)
Description: as §1

[10] = biological target: T10, FBXL10 (Homo sapiens, UniProt Q8NHM5)
T10 construct: purchased BPS Bioscience (contracted assay service)
T10 sequence (Q8NHM5 1-1336): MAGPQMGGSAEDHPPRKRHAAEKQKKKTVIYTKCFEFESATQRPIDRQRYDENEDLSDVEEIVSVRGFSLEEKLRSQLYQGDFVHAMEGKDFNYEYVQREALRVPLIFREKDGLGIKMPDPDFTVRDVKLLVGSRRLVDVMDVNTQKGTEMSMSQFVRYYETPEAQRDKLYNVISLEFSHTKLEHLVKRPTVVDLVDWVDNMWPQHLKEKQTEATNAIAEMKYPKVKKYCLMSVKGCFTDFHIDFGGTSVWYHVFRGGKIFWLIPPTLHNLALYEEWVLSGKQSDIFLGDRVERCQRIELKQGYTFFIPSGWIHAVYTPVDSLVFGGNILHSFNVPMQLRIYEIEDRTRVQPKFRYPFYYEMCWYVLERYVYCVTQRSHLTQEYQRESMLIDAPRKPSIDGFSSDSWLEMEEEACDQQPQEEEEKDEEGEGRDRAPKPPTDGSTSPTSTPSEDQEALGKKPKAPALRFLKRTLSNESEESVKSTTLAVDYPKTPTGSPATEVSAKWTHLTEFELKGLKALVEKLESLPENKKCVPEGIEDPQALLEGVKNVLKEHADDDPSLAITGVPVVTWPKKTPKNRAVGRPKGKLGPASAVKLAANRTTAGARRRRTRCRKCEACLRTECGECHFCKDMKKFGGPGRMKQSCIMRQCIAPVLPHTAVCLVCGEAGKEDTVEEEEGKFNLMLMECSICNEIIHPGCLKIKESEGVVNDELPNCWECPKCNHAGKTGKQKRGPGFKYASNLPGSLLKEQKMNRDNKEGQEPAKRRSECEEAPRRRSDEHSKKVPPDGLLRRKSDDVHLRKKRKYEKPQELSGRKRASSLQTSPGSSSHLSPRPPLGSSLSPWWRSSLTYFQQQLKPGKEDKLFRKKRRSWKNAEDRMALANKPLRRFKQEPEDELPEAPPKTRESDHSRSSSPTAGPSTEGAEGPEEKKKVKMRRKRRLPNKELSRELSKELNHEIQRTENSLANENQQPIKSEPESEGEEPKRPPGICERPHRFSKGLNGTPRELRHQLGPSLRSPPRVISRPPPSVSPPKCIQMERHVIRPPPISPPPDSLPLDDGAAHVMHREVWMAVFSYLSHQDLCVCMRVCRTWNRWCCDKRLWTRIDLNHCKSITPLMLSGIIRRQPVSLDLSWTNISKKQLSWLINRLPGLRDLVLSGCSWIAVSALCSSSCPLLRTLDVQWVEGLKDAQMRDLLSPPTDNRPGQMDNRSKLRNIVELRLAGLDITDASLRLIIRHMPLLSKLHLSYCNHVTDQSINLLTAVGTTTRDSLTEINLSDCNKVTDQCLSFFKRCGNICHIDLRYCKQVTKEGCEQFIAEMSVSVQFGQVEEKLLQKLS
Description: as §1

[11] = biological target: T11, DNMT3A/3L (Homo sapiens, UniProt Q9Y6K1)
T11 construct: purchased BPS Bioscience (contracted assay service)
T11 sequence (Q9Y6K1 whole entry, looked up): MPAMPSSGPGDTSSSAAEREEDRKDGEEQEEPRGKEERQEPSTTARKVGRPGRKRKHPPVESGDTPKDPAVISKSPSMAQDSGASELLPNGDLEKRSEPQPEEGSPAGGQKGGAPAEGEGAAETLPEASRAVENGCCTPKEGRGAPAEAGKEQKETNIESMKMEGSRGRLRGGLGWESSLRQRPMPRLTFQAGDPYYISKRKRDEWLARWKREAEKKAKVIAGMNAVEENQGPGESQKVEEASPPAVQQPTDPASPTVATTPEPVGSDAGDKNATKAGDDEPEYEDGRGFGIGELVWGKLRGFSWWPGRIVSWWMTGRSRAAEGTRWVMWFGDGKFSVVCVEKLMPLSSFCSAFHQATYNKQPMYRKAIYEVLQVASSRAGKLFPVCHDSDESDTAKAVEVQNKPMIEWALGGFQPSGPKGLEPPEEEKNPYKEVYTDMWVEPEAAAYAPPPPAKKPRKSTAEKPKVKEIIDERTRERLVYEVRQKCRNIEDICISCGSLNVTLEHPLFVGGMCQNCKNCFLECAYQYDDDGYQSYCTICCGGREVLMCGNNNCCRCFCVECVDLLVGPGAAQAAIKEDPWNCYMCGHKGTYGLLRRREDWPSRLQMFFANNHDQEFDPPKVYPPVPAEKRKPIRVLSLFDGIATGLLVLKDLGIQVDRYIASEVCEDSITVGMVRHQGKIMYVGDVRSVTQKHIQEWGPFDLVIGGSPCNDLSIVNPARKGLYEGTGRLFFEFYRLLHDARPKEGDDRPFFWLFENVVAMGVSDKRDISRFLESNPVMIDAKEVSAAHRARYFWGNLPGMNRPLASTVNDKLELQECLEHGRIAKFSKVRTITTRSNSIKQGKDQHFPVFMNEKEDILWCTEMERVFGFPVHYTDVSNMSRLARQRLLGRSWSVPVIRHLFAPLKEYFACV
T11 sequence (Q9UJW3 whole entry partner): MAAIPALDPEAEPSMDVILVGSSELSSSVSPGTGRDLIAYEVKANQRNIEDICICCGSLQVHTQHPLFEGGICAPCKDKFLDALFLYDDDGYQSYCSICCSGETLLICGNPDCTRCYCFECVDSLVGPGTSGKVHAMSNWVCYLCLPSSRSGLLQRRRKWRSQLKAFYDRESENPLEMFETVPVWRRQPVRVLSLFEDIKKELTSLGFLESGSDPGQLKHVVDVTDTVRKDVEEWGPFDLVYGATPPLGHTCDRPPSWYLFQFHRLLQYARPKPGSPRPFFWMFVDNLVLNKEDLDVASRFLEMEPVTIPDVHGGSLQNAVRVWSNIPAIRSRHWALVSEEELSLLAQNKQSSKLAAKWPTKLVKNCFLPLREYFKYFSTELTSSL
Description: as §1

[12] = biological target: T12, NSD1 (Homo sapiens, UniProt Q96L73)
T12 construct: purchased BPS Bioscience; Eurofins (HDAC4, 5, 7-11)
Description: as §1

[13] = biological target: T13, SUV4-20H1 (Homo sapiens, UniProt Q4FZB7)
T13 construct: purchased BPS Bioscience; Eurofins (HDAC4, 5, 7-11)
Description: as §1

Structure (SMILES) | inhibition at 10 µM [1] [%] | inhibition at 10 µM [2] [%] | inhibition at 10 µM [3] [%] | inhibition at 10 µM [4] [%] | inhibition at 10 µM [5] [%] | inhibition at 10 µM [6] [%] | inhibition at 10 µM [7] [%] | inhibition at 10 µM [8] [%] | inhibition at 10 µM [9] [%] | IC50 [10] [µM] | inhibition at 10 µM [10] [%] | IC50 [11] [µM] | inhibition at 10 µM [11] [%] | inhibition at 10 µM [12] [%] | inhibition at 10 µM [13] [%]
COc1cc2nc(-c3ccc(C)o3)cc(NCC3CCN(c4ncc(C(=O)NO)cn4)CC3)c2cc1OC [CM-444, 2-[4-[[[6,7-dimethoxy-2-(5-methyl-2-furyl)-4-quinolyl]amino]methyl]-1-piperidyl]pyrimidine-5-carbohydroxamic acid] | 0 | 0 | 16 | 6 | 5 | 0 | 9 | 0 | 13 | 6.7 | 58 | 1.8 | 92 | 14 | 2
COc1cc2nc(-c3cc(C)oc3C)cc(NCC3CCN(c4ncc(C(=O)NO)cn4)CC3)c2cc1OC [CM-1758, 2-[4-[[[2-(2,5-dimethyl-3-furyl)-6,7-dimethoxy-4-quinolyl]amino]methyl] -1-piperidyl]pyrimidine-5-carbohydroxamic acid] | 3 | 1 | 47 | 12 | 29 | 0 | 16 | 7 | 1 | – | 34 | – | 44 | 10 | 1
